Biological target: T1, mouse TRPC4β (Mus musculus, UniProt Q9QUQ5)
T1 construct: expressed in transfected cells; host or cells: HEK293 (ATCC CRL 1573), stably transfected, tetracycline-induced
T1 sequence (Q9QUQ5 1-890 isoform Q9QUQ5-2): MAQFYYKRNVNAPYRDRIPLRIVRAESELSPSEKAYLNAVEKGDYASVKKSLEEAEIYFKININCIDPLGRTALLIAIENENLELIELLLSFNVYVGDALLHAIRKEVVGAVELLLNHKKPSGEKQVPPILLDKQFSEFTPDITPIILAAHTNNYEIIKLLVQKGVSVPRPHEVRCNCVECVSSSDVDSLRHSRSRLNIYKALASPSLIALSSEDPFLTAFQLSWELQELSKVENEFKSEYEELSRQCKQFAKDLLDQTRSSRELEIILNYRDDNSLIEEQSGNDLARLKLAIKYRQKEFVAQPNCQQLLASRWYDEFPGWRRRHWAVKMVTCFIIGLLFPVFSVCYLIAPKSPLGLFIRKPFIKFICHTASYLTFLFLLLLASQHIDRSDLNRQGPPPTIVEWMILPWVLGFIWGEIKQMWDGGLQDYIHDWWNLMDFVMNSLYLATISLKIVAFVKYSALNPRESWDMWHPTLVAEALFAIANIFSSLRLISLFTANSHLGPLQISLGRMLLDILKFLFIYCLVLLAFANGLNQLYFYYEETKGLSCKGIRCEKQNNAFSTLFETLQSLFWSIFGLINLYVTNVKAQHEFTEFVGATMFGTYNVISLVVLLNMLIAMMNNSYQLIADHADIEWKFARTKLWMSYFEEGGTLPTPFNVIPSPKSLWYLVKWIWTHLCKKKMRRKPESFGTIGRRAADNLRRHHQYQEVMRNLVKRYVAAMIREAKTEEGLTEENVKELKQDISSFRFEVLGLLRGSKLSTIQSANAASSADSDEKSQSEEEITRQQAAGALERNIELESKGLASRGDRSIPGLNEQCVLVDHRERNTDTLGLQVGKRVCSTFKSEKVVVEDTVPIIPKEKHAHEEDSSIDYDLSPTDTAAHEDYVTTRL
Assay: FLIPR Ca2+ influx assay (Fluo-4) with 365/447 nm photoswitching, HEK293 stably expressing mouse TRPC4β
Format: cell-based
Conditions: for EC50: Z* = mostly-Z PSS under 365 nm LED, Fluo-4-loaded cells, read-out: Agonistic EC50 (365 nm) TRPC4
Excerpt: We initially screened for the photoswitchability of activity in cells using a fluorometric imaging plate reader (FLIPR) calcium flux assay, with HEK293 cells stably expressing mouse TRPC4β or mouse TRPC5. Note, however, that the parallel-throughput FLIPR setup is limited to use fixed light-emitting diodes at 365 nm (good Z) and 447 nm (suboptimal E), which, combined with the slowness of the onset and recovery of the fluorescence readout for calcium, causes the FLIPR results to underestimate the reagents’ true speed, degree and completion of TRPC chromocontrol (shown later). […]
3 Cultured Cell Lines (primarily for Fig. 1 and Fig. 2)
3.1 FLIPR Ca2+ influx assay in cell suspensions.
We initially screened for photoswitchability of activity in cells, using a fluorometric imaging plate reader (FLIPR) calcium flux assay, with human embryonic kidney cell line HEK293 stably transfected to express mouse TRPC4β- or TRPC5-CFP fusion protein (HEKmTRPC4β-CFP / HEKmTRPC5-CFP, HEK293 obtained from ATCC CRL 1573). The FLIPR setup provides high-content data, but it is limited to using LED wavelengths of 365 nm (best-Z) and 447 nm (suboptimal-E), while imaging at 470 nm excitation (Fluo-4 AM as Ca2+ indicator; this imaging light counteracts both PSSs). Therefore, we expected the FLIPR results to under-estimate the true chromocontrol power accessible to the reagents.
Cells were grown to 70%-90% confluency in a 75-cm2 culture flask, trypsinised, washed and resuspended in BSA-containing (0.1%) HBS, and supplemented with 3 µM Fluo-4/AM. Stably TRPC-transfected cells were induced with tetracycline 24 h prior to the experiments.42,43 After incubation at 37°C for 30 min [Fluo-4 loading], cells were again washed, resuspended, and dispensed (40 µl/well) into black pigmented, clear-bottom 384-well plates (Greiner µ-clear). To image the Fluo-4 fluorescence during the application and photoswitching of test compounds, these plates were first mounted to a Tecan Fluent 480 (Tecan, Männedorf, Switzerland) liquid handling device, equipped with a 384-tip multichannel arm and a gripper arm. A custom-made plate-imaging device was used for photoswitching during fluorescence imaging, which features LED-based excitation modules (365 nm and 447 nm used here for photoswitching, and 470 nm used here for Fluo-4 readout) projected onto the bottom of the microwell plate, with a cooled scientific complementary metal oxide sensor (sCMOS) camera (Zyla 5.5, Andor, Belfast, UK) equipped with a Nokton 42.5 mm f/0.95 (Voigtlaender, Fürth, Germany) for detection. The LEDs were controlled with an Arduino device and constant current drivers (1 A for 365 and 470 nm LEDs; 3 A for 447 nm LED); detection was under the control of Micromanager 2.0 software. Compounds were serially diluted and applied to the Fluo-4-loaded cell suspensions inside this custom plate-imaging device, then fluorescence intensities (under 470 nm excitation) were continuously recorded during programmed illuminations e.g. with alternating 365 nm and 447 nm phases.
Concentration-response curves for the Z-isomers (channel activation) were then constructed from the maximal signals during 365 nm phases, after a suitable number of "priming" cycles to allow the system to reach stable performance (Supplementary Fig. 13).
All experiments were conducted as a minimum of 3 independent experiments with each experiment averaging data in technical duplicates.
Cellular TRPC4 photoswitching: HEK cell Ca2+ influx photomodulation […]
Supplementary Figure 12. […]

Compound	EC50 [nM]	Activity of Z isomer on TRPC4 (into the micromolar range, 365 nm)	Effect of E isomer alone on TRPC4 (12 pM to […], before 365-nm illumination)
Cn1c(=O)n(CCCO)c(=O)c2c1nc(Oc1ccc(/N=N\c3ccccc3)c(Cl)c1)n2Cc1ccc(Cl)cc1 [Z*-AzHC]	> 1000	completely inactive	–
Cn1c(=O)n(CCCO)c(=O)c2c1nc(Oc1ccc(/N=N/c3ccccc3)c(OC(F)(F)F)c1)n2Cc1ccc(Cl)cc1 [E-AzPico]	–	–	no effect
Cn1c(=O)n(CCCO)c(=O)c2c1nc(Oc1ccc(N=Nc3ccccc3)c(OC(F)(F)F)c1)n2Cc1ccc(Cl)cc1 [AzPico]	3	–	–

Source: PMC12858405, “Ideal efficacy photoswitching for chromocontrol of TRPC4/5 channel functions in live tissues” (Nature Chemical Biology, 2026)
